Patent publication US20250064867A1, “METHOD FOR PREVENTING OR TREATING MUSCLE DISEASE” (KOREA RESEARCH INSTITUTE OF BIOSCIENCE AND BIOTECHNOLOGY, priority 2018, published 2025)

Test system: C2C12 myoblasts
Assay: WST-1 cytotoxicity assay on C2C12
Type: cell-based, mouse
Settings: 24 hours
Description: First, mouse skeletal muscle C2C12 cell line (CRL-1772, ATCC, Manassas, VA, USA) was purchased and used. To assess the cytotoxicity of dexamethasone and HB05P on C2C12, a WST-1 assay (Cell Proliferation Reagent WST-1, 5015944001, Roche, Basel, Switzerland) was performed. Myoblasts (C2C12) were dispensed at a density of 2.0×10^4 cells/well into 96-well plates (Corning® 96-well Clear Polystyrene Microplates, 3598, Corning, Glendale, AZ, USA) and cultured at 37° C. in 5% CO2 conditions for 24 hours. The cultured cells were then treated with varying concentrations of dexamethasone (0, 250, 500, 750, 1000 μM) and HB05P (0, 1.0×10^3, 1.0×10^4, 1.0×10^5, 1.0×10^6, 1.0×10^7 cells/well). After 24 hours of incubation, cell viability was measured using a VersaMax Microplate Reader (Molecular devices, San Jose, CA, USA).

C[C@@H]1C[C@H]2[C@@H]3CCC4=CC(=O)C=C[C@]4(C)[C@@]3(F)[C@@H](O)C[C@]2(C)[C@@]1(O)C(=O)CO [dexamethasone]
cell viability, trend over concentration (0, 250, 500, 750, 1000 μM): concentration-dependent decrease
cell viability (250 μM, untreated = 100%): 66.6%
